Here are results for four compounds from ChEMBL document CHEMBL1131946, “Synthesis and evaluation of backbone/amide-modified analogs of leualacin” (Bioorg Med Chem Lett, 1999).

The nature of experiment [1]: Inhibitory effect against arachidonic acid-induced platelet aggregation at a concentration of 100 uM. Format: functional.
Experiment [2] is filed under the species Rattus norvegicus. In words: vasodilatory effect for [Ca2+] antagonism in aortic arch isolated from WKY rats at a concentration of 0.1 uM. Format: functional, Pharyngeal arch artery.
Experiment [3] is described as follows: Inhibitory effect against collagen-induced platelet aggregation at a concentration of 100 ug/mL. Format: functional.
The nature of experiment [4]: Inhibitory effect against U-46,619-induced platelet aggregation at a concentration of 1 uM. Type of experiment: functional.
The species named for experiment [5] is Rattus norvegicus. Description: vasodilatory effect for [Ca2+] antagonism in aortic arch isolated from WKY rats at a concentration of 1 uM. Format: functional, Pharyngeal arch artery.
The species entered for experiment [6] is Rattus norvegicus. In words: vasodilatory effect for [Ca2+] antagonism in aortic arch isolated from WKY rats at a concentration of 10 uM. Type of experiment: functional, Pharyngeal arch artery.
The species named for experiment [7] is Rattus norvegicus. In words: vasodilatory effect for [Ca2+] antagonism in aortic arch isolated from WKY rats at a concentration of 100 uM. Format: functional, Pharyngeal arch artery.
Experiment [8] is filed under the species Rattus norvegicus. Description: vasodilatory effect for [Ca2+] antagonism in aortic arch isolated from WKY rats at a concentration of 0.01 uM. Format: functional, Pharyngeal arch artery.
Experiment [9] is described as follows: Inhibitory effect against TXB2 formation in response to arachidonic acid-induced platelet aggregation at a concentration of 100 uM. Format: functional.
A short description of experiment [10]: Inhibitory effect against TXB2 formation in response to collagen-induced platelet aggregation at a concentration of 100 ug/mL. Type of experiment: functional.

pIC50: −log10 of the molar value.

As a reminder, the pIC50 is the negative decadic logarithm of the IC50, by convention in mol/L. Take `CC(C)C[C@@H]1NC(=O)[C@@H](CC(C)C)OC(=O)CCN(C)C(=O)[C@H](Cc2ccccc2)N(C)C(=O)[C@H](CC(C)C)OC1=O`: the negative logarithm of the IC50 (pIC50) is less than 3.70 in experiment [1], less than 3.82 in [3] and less than 3.70 in experiment [4]. The Vasodilatory rate in the experiment filed under Rattus norvegicus [2] is recorded as 32.5%; in the experiment filed under Rattus norvegicus [5], 25.1%; in the experiment filed under Rattus norvegicus [6] it was 80.8%; in the experiment listed under Rattus norvegicus [7] it was 78%; in the experiment filed under Rattus norvegicus [8], 11.5%.

As to `CC(C)C[C@@H]1NC(=O)[C@@H](CC(C)C)NC(=O)CCNC(=O)[C@H](Cc2ccccc2)N(C)C(=O)[C@H](CC(C)C)OC1=O`, the results for the pIC50 in experiment [1], in [3] and in experiment [4] were 4.52, 5.00 and 4.40, respectively. The figures for the “Amount of TXB2 formation” value in [9] and in experiment [10] were 30.7 ng/mL and 25.6 ng/mL, respectively. Moreover, the Vasodilatory rate was 35% in the experiment listed under Rattus norvegicus [2], 100% in the experiment filed under Rattus norvegicus [5] and 29.3% in the experiment listed under Rattus norvegicus [8].

Turning to `CC(C)C[C@@H]1NC(=O)[C@@H](CC(C)C)NC(=O)CCN(C)C(=O)[C@H](Cc2ccccc2)N(C)C(=O)[C@H](CC(C)C)OC1=O`, the pIC50 in [1] is less than 3.70; in experiment [3], less than 3.82; in experiment [4], less than 3.70.

With `CC(C)C[C@@H]1NC(=O)[C@@H](CC(C)C)OC(=O)CCNC(=O)[C@H](Cc2ccccc2)N(C)C(=O)[C@H](CC(C)C)OC1=O`, the results for the negative logarithm of the IC50 (pIC50) in experiment [1], in [3] and in experiment [4] were 3.82, 4.30 and 3.82, respectively. Besides, the entries for the “Amount of TXB2 formation” value in experiment [9] and in experiment [10] were 55.4 ng/mL and 39.4 ng/mL, respectively. Besides, the Vasodilatory rate in the experiment listed under Rattus norvegicus [5] stood at 26.8%; in the experiment filed under Rattus norvegicus [6], 64.4%; in the experiment listed under Rattus norvegicus [7], 66.5%.
